{"source": "patent US4620014A", "about": "“2-furylbutyrolactones and methods for using same” (priority 1983, dated 1986)", "key": {"[1]": {"system": "FLC-745 cells", "experiment": "MLTC assay of CTL activity, FLC-745 target cells", "type": "cell-based", "excerpt": "A mixed lymphocyte tumor culture (MLTC) immunoassay, used to determine the cytotoxic lymphocyte (CTL) activity employs lymphocytes from either immunized (sensitized) mice or DBA/2 tumor dormant state animals in various stages of the tumor dormant state (TDS). The assay employs L5178Y target cells labeled with ^51 Chromium and effector cells (sensitized lymphocytes) from the above-mentioned sources. Effector-target cell ratios will vary with different experimental conditions and may or may not include irradiated stimulator L5178Y cells. Results are expressed as % lysis of target cells based on ratio of cpm of test group over cpm of total release (maximum) both of which are corrected for spontaneous release of ^51 Cr. The assay can be performed as an 8 or 18 hour release assay.\nAn MLTC assay is performed to assess the CTL activity and tumor target cell specificity of Cpd. 1. Tumor dormant spleen cells and normal spleen cells of DBA/2 mice are used as effector cells. Irradiated L5178Y cells are used as stimulator cells. ^51 Cr-labeled L5178Y cells and FLC-745 cells are used as target cells. The effector/target ratios studied are 100:1, 30:1 and 10:1."}, "[2]": {"system": "spleen lymphocytes from C57BL/6 mice", "experiment": "In vitro lymphocyte stimulation assay, C57BL/6 spleen lymphocytes", "type": "cell-based, mouse", "procedure": "The purpose of this assay is to challenge lymphocytes in microcultures with one or more polyclonal mitogens at concentrations that will induce mitogenesis within 72 hours of stimulation.\nIn the mouse model, spleens are removed from different strains of mice and the spleen cells are teased free and suspended in RPMI-1640 tissue culture medium at a concentration of usually 1×10^7 ml. These cells are dispensed at a concentration of 5.0×10^5 cells per microculture well in a 96 well flat bottom 96 well tissue culture plate. All testing of the compounds of this invention or mitogens are done in replicates of 10. The cells are then treated with PHA, Con-A, specific antigens, or buffer only. If in vitro testing is done, varying concentrations of the compounds of this invention or buffer only are added to the cells as well. After treatment with the mitogens and/or compounds of this invention, the cells are incubated for 72 hours. The response of these cells to mitogens and/or the compounds of this invention is assessed using ^14 C-thymidine labeling on the fourth day at a concentration of 0.01 μCi/well. The labeled cells are harvested using a lymphocyte harvestor and placed onto fibrous paper discs. A scintillation cocktail is added to vials contaning the discs and the results are obtained using a LKB-liquid scintillation counter (Model 1216/Rackbeta II). The data is expressed as a ratio of the cpm of the mitogen stimulated group to the control (non-mitogen) treated group=lymphocyte stimulation index (LSI).\nThe lymphocyte stimulation assay may be performed directly on spleen cells obtained from various strains of mice not treated with the compounds of this invention or on lymphocytes obtained from […]. […] Alternatively, the mice may be treated in vivo with the compounds of this invention by intraperitoneal multi-dose schedules, followed by sacrifice and harvesting spleen lymphocytes. These cells are then tested for their response to polyclonal mitogens or specific antigens used to immunize the mice. In this sytem however, no additional compound is added to the in vitro lymphocyte stimulation assay system.\nAn in vitro lymphocyte stimulation assay is performed directly on normal spleen lymphocytes removed from five normal C57BL/6 mice, using concentrations of Cpd. […] Following three days of incubation the assay is completed.\nAn in vitro lymphocyte stimulation assay was performed using spleen lymphocytes from normal C57BL/6 mice. The lymphocytes were treated with either 1, 5, 10, 50, or 100 μg/well of Cpd. 1 or buffer.\nCpd. 2 was tested using normal spleen lymphocytes from C57BL/6 mice. A lymphocyte stimulation assay was conducted using either 1, 5, 10, 50, or 100 μg/well […] or just buffer.\nSpleen cells from C57BL/6 mice were treated, in vitro, with the crystallizing reagents, succinic acid and succinimide. Since these compounds are spontaneously released from the molecular complex in solution at a molar ratio of 2 moles of Cpds. 1, 2, or 3 per mole of the crystalline reagent, these reagents were treated in the lymphocyte stimulation assay at proper molar concentrations.\nThe compound of example 3, Cpd. 3, was used to treat C57BL/6 spleen lymphocytes in vitro. The lymphocytes were treated with either 1, 5, 10, 50, or 100 μg/well of Cpd. 3 or just buffer and then a lymphocyte stimulation assay was performed."}, "[3]": {"system": "C57BL/6 mice", "conditions": "10 mice per dose", "procedure": "Single dose LD50 in C57BL/6 mice for Cpd. 1 is determined following the method of Spearman and Karber described in Basic Exercises in Immunochemistry, 1979. Briefly, 0.5 ml of each dose is given to each of ten mice. The survivors are counted after 3 days and the LD50 is calculated using the following formula: [formula] where D=fold diferences between doses, R=total number dead, and N=total number of animals tested."}}, "note": "Several values for one entry are separate records, joined by “and”; a condition that tells them apart may be missing. Equal entries are not always repeated. Where two headings read alike, the source gives them in different places."}
{"compound": "Cc1ccc(C2(O)C(=O)OC3C(O)COC32O)o1.Cc1ccc(C2(O)C(=O)OC3C(O)COC32O)o1.O=C1CCC(=O)O1", "note": "(stereo not drawn) [Cpd. 1]", "values": [{"measurement": "% Lysis", "setting": "[1]; E + D (TDS effector, no stimulator), E/T 10:1", "result": 0.7, "unit": "%"}, {"measurement": "% Lysis", "setting": "[1]; E + D (TDS effector, no stimulator), E/T 30:1", "result": 4.6, "unit": "%"}, {"measurement": "% Lysis", "setting": "[1]; E + D (TDS effector, no stimulator), E/T 100:1", "result": 6.6, "unit": "%"}, {"measurement": "% Lysis", "setting": "[1]; E + S + D (TDS effector, stimulator), E/T 10:1", "result": 0.5, "unit": "%"}, {"measurement": "% Lysis", "setting": "[1]; E + S + D (TDS effector, stimulator), E/T 30:1", "result": 3.6, "unit": "%"}, {"measurement": "% Lysis", "setting": "[1]; E + S + D (TDS effector, stimulator), E/T 100:1", "result": 13.4, "unit": "%"}, {"measurement": "enhancement of CTL activity", "setting": "[1]; FLC-745 target system (Example 28)", "result": "not observed"}, {"measurement": "% Lysis", "setting": "[1]; N + D (normal effector, no stimulator), E/T 10:1", "result": -3.5, "unit": "%"}, {"measurement": "% Lysis", "setting": "[1]; N + D (normal effector, no stimulator), E/T 30:1", "result": 0.9, "unit": "%"}, {"measurement": "% Lysis", "setting": "[1]; N + D (normal effector, no stimulator), E/T 100:1", "result": 13.9, "unit": "%"}, {"measurement": "% Lysis", "setting": "[1]; N + S + D (normal effector, stimulator), E/T 10:1", "result": -1.1, "unit": "%"}, {"measurement": "% Lysis", "setting": "[1]; N + S + D (normal effector, stimulator), E/T 30:1", "result": -0.8, "unit": "%"}, {"measurement": "% Lysis", "setting": "[1]; N + S + D (normal effector, stimulator), E/T 100:1", "result": 5.8, "unit": "%"}, {"measurement": "Lymphocyte Stimulation Index, Con-A", "setting": "[2]; 1 μg/well in vitro", "result": "178 and 123"}, {"measurement": "Lymphocyte Stimulation Index, PHA", "setting": "[2]; 1 μg/well in vitro", "result": "53.8 and 80.4"}, {"measurement": "Lymphocyte Stimulation Index, Con-A", "setting": "[2]; 5 μg/well in vitro", "result": 162}, {"measurement": "Lymphocyte Stimulation Index, Control (no mitogen)", "setting": "[2]; 5 μg/well in vitro", "result": 1.8}, {"measurement": "Lymphocyte Stimulation Index, PHA", "setting": "[2]; 5 μg/well in vitro", "result": 157}, {"measurement": "mitogenesis, PHA and Con-A", "setting": "[2]; 10 μg/well (Example 12)", "result": "significant suppression"}, {"measurement": "Lymphocyte Stimulation Index, Con-A", "setting": "[2]; 50 μg/well in vitro", "result": 3.78}, {"measurement": "Lymphocyte Stimulation Index, Control (no mitogen)", "setting": "[2]; 50 μg/well in vitro", "result": ".20"}, {"measurement": "Lymphocyte Stimulation Index, PHA", "setting": "[2]; 50 μg/well in vitro", "result": ".261"}, {"measurement": "Lymphocyte Stimulation Index, Con-A", "setting": "[2]; 100 μg/well in vitro", "result": ".308"}, {"measurement": "Lymphocyte Stimulation Index, Control (no mitogen)", "setting": "[2]; 100 μg/well in vitro", "result": ".20"}, {"measurement": "Lymphocyte Stimulation Index, PHA", "setting": "[2]; 100 μg/well in vitro", "result": ".292"}, {"measurement": "mitogenesis, PHA and Con-A", "setting": "[2]; 0.001-1.0 μg/well", "result": "significant stimulation of mitogenesis"}, {"measurement": "response to PHA and Con-A", "setting": "[2]; 5 and 10 μg/well", "result": "significant increases"}, {"measurement": "lymphocyte response to the mitogens", "setting": "[2]; 50 and 100 μg/well", "result": "significant decreases"}, {"measurement": "Lymphocyte Stimulation Index, Con-A", "setting": "[2]; .001 μg/well in vitro", "result": 198}, {"measurement": "Lymphocyte Stimulation Index, Control (no mitogen)", "setting": "[2]; .001 μg/well in vitro", "result": 3.8}, {"measurement": "Lymphocyte Stimulation Index, PHA", "setting": "[2]; .001 μg/well in vitro", "result": 80.4}, {"measurement": "Lymphocyte Stimulation Index, Con-A", "setting": "[2]; .01 μg/well in vitro", "result": 198}, {"measurement": "Lymphocyte Stimulation Index, Control (no mitogen)", "setting": "[2]; .01 μg/well in vitro", "result": 3.2}, {"measurement": "Lymphocyte Stimulation Index, PHA", "setting": "[2]; .01 μg/well in vitro", "result": 87.5}, {"measurement": "Lymphocyte Stimulation Index, Con-A", "setting": "[2]; .1 μg/well in vitro", "result": 198}, {"measurement": "Lymphocyte Stimulation Index, Control (no mitogen)", "setting": "[2]; .1 μg/well in vitro", "result": 3.2}, {"measurement": "Lymphocyte Stimulation Index, PHA", "setting": "[2]; .1 μg/well in vitro", "result": 83.1}, {"measurement": "Number Dead on Day 3", "setting": "[3]; single i.p. 1,000 mg/kg", "result": 0}, {"measurement": "Number Dead on Day 3", "setting": "[3]; single i.p. 2,000 mg/kg", "result": 0}, {"measurement": "Number Dead on Day 3", "setting": "[3]; single i.p. 4,000 mg/kg", "result": 7}, {"measurement": "Number Dead on Day 3", "setting": "[3]; single i.p. 8,000 mg/kg", "result": 10}, {"measurement": "Number Dead on Day 3", "setting": "[3]; single i.p. 16,000 mg/kg", "result": 10}]}
